Laboratory results as given in article PMC6508583 (Journal of the American Chemical Society, 2019).
Values after ≈ are worked out from the molar mass of the structure shown. Read-outs that look alike come from different tables or passages of the source.

What was measured:
[1] = tested on: A1555G mutant mitochondrial hybrid ribosome; assay type: biochemical, human; conditions: for Selectivity A1555G: A1555G over wt bacterial ribosome; for IC50 A1555G: in vitro translation inhibition, A1555G mutant mitochondrial hybrid ribosome
[2] = tested on: E. coli carrying specific resistance determinants; experiment: Activity against wild-type and engineered E. coli carrying specific AMEs or RMTs; assay type: cell-based; conditions: Escherichia coli
[3] = tested on: E. cloacae clinical isolates carrying two or more resistance determinants; assay type: cell-based; conditions: Enterobacter cloacae
MRSA = experiment: Antibacterial activity against reference strains: MRSA; assay type: cell-based; conditions: for MIC: Staphylococcus aureus, MRSA; for Antibacterial activity (MIC) MRSA AG038: strain AG038; for Antibacterial activity (MIC) MRSA AG042: strain AG042 carries the AAC(6)’, ANT(4’,4’’) and APH(3’) genes
[4] = tested on: E. coli clinical isolates carrying two or more resistance determinants; experiment: Activity against E. coli clinical isolates with multiple resistance determinants; assay type: cell-based; conditions: Escherichia coli
[5] = tested on: wild-type bacterial ribosome; experiment: Cell-free translation assay, wild-type bacterial ribosome; assay type: biochemical; conditions: in vitro translation inhibition
E. coli = experiment: Antibacterial activity against reference strains: E. coli; conditions: for MIC: Escherichia coli; for Antibacterial activity (MIC) E. coli AG003: strain AG003 carries the AAC(3) gene; for Antibacterial activity (MIC) E. coli AG001: strain AG001
[6] = tested on: Cyt14 hybrid ribosome (decoding A site of the human cytoplasmic ribosome); assay type: biochemical; conditions: for Selectivity Cyt14: Cyt14 over wt bacterial ribosome; for IC50 Cyt 14: in vitro translation inhibition, Cyt14 hybrid ribosome
E. cloacae = experiment: Antibacterial activity against reference strains: E. cloacae; assay type: cell-based; conditions: for MIC: Enterobacter cloacae, read-out: Antibacterial activity (MIC) E. cloacae AG290; for Antibacterial activity (MIC) E. cloacae AG290: strain AG290
[7] = tested on: Mit13 hybrid ribosome (decoding A site of the human mitochondrial ribosome); assay type: biochemical; conditions: for Selectivity Mit 13: Mit13 over wt bacterial ribosome; for IC50 Mit13: in vitro translation inhibition, Mit13 hybrid ribosome
K. pneumoniae = experiment: Antibacterial activity against reference strains: K. pneumoniae; assay type: cell-based; conditions: strain AG215
A. baumannii = experiment: Antibacterial activity against reference strains: A. baumannii; assay type: cell-based; conditions: strain AG225
P. aeruginosa = experiment: Antibacterial activity against reference strains: P. aeruginosa; conditions: for Antibacterial activity (MIC) P. aeruginosa AG031: strain AG031 carries the APH(3’) gene
[8] = read-out: Activity (MIC) E. coli AG006
[9] = read-out: Activity (MIC) E. coli AG007
[10] = read-out: Activity (MIC) E. coli AG008
[11] = read-out: Activity (MIC) E. coli AG009
[12] = read-out: Activity (MIC) E. coli AG036
[13] = read-out: Activity (MIC) E. coli AG103
[14] = read-out: Activity (MIC) E. coli AG105
[15] = read-out: Activity (MIC) E. coli AG166
[16] = read-out: Activity (MIC) E. cloacae isolate 201333207
[17] = read-out: Activity (MIC) E. cloacae isolate 201385168
[18] = read-out: Activity (MIC) E. cloacae isolate 201430601
[19] = read-out: Activity (MIC) E. cloacae isolate 201435487
[20] = read-out: Antibacterial activity (MIC) MRSA AG038
[21] = read-out: Antibacterial activity (MIC) MRSA AG042
[22] = read-out: Activity (MIC) E. coli isolate 201430298
[23] = read-out: Activity (MIC) E. coli isolate 201441114
[24] = read-out: Activity (MIC) E. coli isolate 2014251408
[25] = read-out: Activity (MIC) E. coli isolate 2014405344
[26] = read-out: Antibacterial activity (MIC) E. coli AG001
[27] = read-out: Antibacterial activity (MIC) E. coli AG003

Compound	Selectivity A1555G [1]	IC50 A1555G [1] [µg/mL]	MIC [2, 8] [µg/mL]	MIC [2, 9] [µg/mL]	MIC [2, 10] [µg/mL]	MIC [2, 11] [µg/mL]	MIC [2, 12] [µg/mL]	MIC [2, 13] [µg/mL]	MIC [2, 14] [µg/mL]	MIC [2, 15] [µg/mL]	MIC [3, 16] [µg/mL]	MIC [3, 17] [µg/mL]	MIC [3, 18] [µg/mL]	MIC [3, 19] [µg/mL]	MIC (MRSA; [20]) [µg/mL]	IC50 wt [5] [µg/mL]	Selectivity Cyt14 [6]	IC50 Cyt 14 [6] [µg/mL]	Selectivity Mit 13 [7]	IC50 Mit13 [7] [µg/mL]	also measured
NCC[C@H](O)C(=O)N[C@@H]1C[C@H](N)[C@@H](O[C@H]2O[C@H](CN)[C@@H](O)[C@H](O)[C@H]2O)[C@H](O)[C@H]1O[C@H]1O[C@H](CO)[C@@H](O)[C@H](N)[C@H]1O [Amikacin]	21	0.42 (≈ 0.717 µM)	1 to 2 (≈ 1.71 to 3.42 µM)	2 (≈ 3.42 µM)	1 to 2 (≈ 1.71 to 3.42 µM)	32 (≈ 54.6 µM)	4 to 8 (≈ 6.83 to 13.7 µM)	> 128	2 (≈ 3.42 µM)	2 (≈ 3.42 µM)	16 (≈ 27.3 µM)	> 256	8 (≈ 13.7 µM)	4 (≈ 6.83 µM)	4 (≈ 6.83 µM)	0.02 (≈ 0.0342 µM)	4500	90 (≈ 154 µM)	600	12 (≈ 20.5 µM)	MIC (MRSA; [21]): 16 to 32 µg/mL (≈ 27.3 to 54.6 µM); MIC [4, 22]: 8 µg/mL (≈ 13.7 µM); MIC [4, 23]: 64 µg/mL (≈ 109 µM); MIC [4, 24]: 64 µg/mL (≈ 109 µM); MIC [4, 25]: > 256 µg/mL; MIC (E. coli; [26]): 2 µg/mL (≈ 3.42 µM); MIC (E. coli; [27]): 2 µg/mL (≈ 3.42 µM); MIC (E. cloacae): 1 µg/mL (≈ 1.71 µM)
CNC(C)C1CCC(N)C(OC2C(N)CC(N)C(OC3OCC(C)(O)C(NC)C3O)C2O)O1 (centres unmarked) [Gentamicin]	–	0.5 (≈ 1.05 µM)	0.5 (≈ 1.05 µM)	32 (≈ 67 µM)	8 to 16 (≈ 16.8 to 33.5 µM)	1 to 2 (≈ 2.09 to 4.19 µM)	0.5 (≈ 1.05 µM)	> 128	32 (≈ 67 µM)	0.5 (≈ 1.05 µM)	64 (≈ 134 µM)	> 256	16 (≈ 33.5 µM)	64 (≈ 134 µM)	0.25 (≈ 0.523 µM)	0.02 (≈ 0.0419 µM)	–	33 (≈ 69.1 µM)	–	9 (≈ 18.8 µM)	MIC (MRSA; [21]): 64 µg/mL (≈ 134 µM); MIC [4, 22]: 128 µg/mL (≈ 268 µM); MIC [4, 23]: 16 µg/mL (≈ 33.5 µM); MIC [4, 24]: 256 µg/mL (≈ 536 µM); MIC [4, 25]: > 256 µg/mL; MIC (E. coli; [26]): 1 to 2 µg/mL (≈ 2.09 to 4.19 µM); MIC (E. coli; [27]): 32 to 64 µg/mL (≈ 67 to 134 µM); MIC (E. cloacae): 0.25 µg/mL (≈ 0.523 µM)
NC[C@@H]1O[C@H](O[C@H]2[C@@H](O)[C@H](O[C@@H]3[C@@H](O)[C@H](N)C[C@H](N)[C@H]3O[C@H]3O[C@H](CO)C[C@H](O)[C@H]3N)O[C@@H]2CO)[C@H](N)[C@@H](O)[C@@H]1O [Compound 2, 4’-deoxy paromomycin]	480	24 (≈ 40 µM)	–	–	–	–	–	–	–	–	–	–	–	–	–	0.05 (≈ 0.0834 µM)	560	28 (≈ 46.7 µM)	1480	74 (≈ 123 µM)	Antibacterial activity (MIC) K. pneumoniae AG215 (K. pneumoniae): 4 µg/mL; Antibacterial activity (MIC) A. baumannii AG225 (A. baumannii): 8 µg/mL; Antibacterial activity (MIC) MRSA AG038 (MRSA): 16 µg/mL; Antibacterial activity (MIC) MRSA AG042 (MRSA): 8 to 16 µg/mL; Antibacterial activity (MIC) E. coli AG003 (E. coli): 32 µg/mL; Antibacterial activity (MIC) E. cloacae AG290 (E. cloacae): 4 to 8 µg/mL
CCC1C(CO)OC(OC2C(N)CC(N)C(O)C2OC2OC(CO)C(OC3OC(CN)C(O)C(O)C3N)C2O)C(N)C1O (centres unmarked) [Compound 35]	2150	129 (≈ 206 µM)	–	–	–	–	–	–	–	–	–	–	–	–	–	0.06 (≈ 0.0956 µM)	1867	112 (≈ 178 µM)	3033	182 (≈ 290 µM)	Antibacterial activity (MIC) K. pneumoniae AG215 (K. pneumoniae): 4 µg/mL; Antibacterial activity (MIC) A. baumannii AG225 (A. baumannii): 16 to 32 µg/mL; Antibacterial activity (MIC) MRSA AG038 (MRSA): 8 µg/mL; Antibacterial activity (MIC) MRSA AG042 (MRSA): 4 to 8 µg/mL; Antibacterial activity (MIC) E. coli AG001 (E. coli): 8 µg/mL; Antibacterial activity (MIC) E. coli AG003 (E. coli): 8 µg/mL; Antibacterial activity (MIC) P. aeruginosa AG031 (P. aeruginosa): 64 to 128 µg/mL; Antibacterial activity (MIC) E. cloacae AG290 (E. cloacae): 4 to 8 µg/mL
NC[C@H]1O[C@H](O[C@H]2[C@H](O)[C@@H](O[C@H]3O[C@H](CO)[C@@H](O)[C@H](N)[C@H]3O)[C@H](N)C[C@@H]2N)[C@H](N)C[C@@H]1O [Tobramycin]	25	0.5 (≈ 1.07 µM)	0.5 (≈ 1.07 µM)	4 (≈ 8.56 µM)	8 (≈ 17.1 µM)	64 to 128 (≈ 137 to 274 µM)	16 to 32 (≈ 34.2 to 68.4 µM)	> 128	1 (≈ 2.14 µM)	0.5 to 1 (≈ 1.07 to 2.14 µM)	32 (≈ 68.4 µM)	> 256	32 (≈ 68.4 µM)	16 (≈ 34.2 µM)	0.5 to 1 (≈ 1.07 to 2.14 µM)	0.02 (≈ 0.0428 µM)	1350	27 (≈ 57.8 µM)	750	15 (≈ 32.1 µM)	MIC (MRSA; [21]): ≥ 256 µg/mL; MIC [4, 22]: 256 µg/mL (≈ 548 µM); MIC [4, 23]: 32 µg/mL (≈ 68.4 µM); MIC [4, 24]: 128 µg/mL (≈ 274 µM); MIC [4, 25]: > 256 µg/mL; MIC (E. coli; [26]): 1 to 2 µg/mL (≈ 2.14 to 4.28 µM); MIC (E. coli; [27]): 4 µg/mL (≈ 8.56 µM); MIC (E. cloacae): 0.5 to 1 µg/mL (≈ 1.07 to 2.14 µM)
NCC1OC(OC2C(CO)OC(OC3C(O)C(N)CC(N)C3OC3OC(CO)C(CC(O)CO)C(O)C3N)C2O)C(N)C(O)C1O (centres unmarked) [Compound 37]	330	33 (≈ 49 µM)	–	–	–	–	–	–	–	–	–	–	–	–	–	0.10 (≈ 0.148 µM)	590	59 (≈ 87.6 µM)	320	32 (≈ 47.5 µM)	Antibacterial activity (MIC) K. pneumoniae AG215 (K. pneumoniae): 8 µg/mL; Antibacterial activity (MIC) A. baumannii AG225 (A. baumannii): 8 µg/mL; Antibacterial activity (MIC) MRSA AG038 (MRSA): 4 µg/mL; Antibacterial activity (MIC) MRSA AG042 (MRSA): 8 µg/mL; Antibacterial activity (MIC) E. coli AG001 (E. coli): 16 µg/mL; Antibacterial activity (MIC) E. coli AG003 (E. coli): 8 µg/mL; Antibacterial activity (MIC) P. aeruginosa AG031 (P. aeruginosa): 16 to 32 µg/mL; Antibacterial activity (MIC) P. aeruginosa AG220 (P. aeruginosa; strain AG220 carries the APH(3’) gene): 16 µg/mL; Antibacterial activity (MIC) E. cloacae AG290 (E. cloacae): 4 to 8 µg/mL
